Laboratory results reported in publication PMC4102551, “Screening and Characterisation of Antimicrobial Properties of Semisynthetic Betulin Derivatives” (PLoS ONE, 2014).
Where “and” joins values, the source holds several entries; their conditions need not be identical. Equal entries are not always repeated. Where two headings read alike, the source gives them in different places.

Experiments:
E. aerogenes ATCC 13048 = test: Broth microdilution assay, E. aerogenes; format: cell-based, Enterobacter aerogenes; details: for inhibition at 50 µM: Klebsiella aerogenes, ATCC13048, 24 h, read-out: Inhibitory effect (%) E. aerogenes ATCC 13048
Protocol: (§1) Clinically used antimicrobial agents were selected based on international guidelines for antimicrobial testing and were utilised as reference compounds in the antimicrobial assays. The compounds were purchased from Sigma, Fluka and ICN Biomedicals. Stock solutions of the reference compounds were prepared either in double distilled sterile MilliQ water or in DMSO. Water solutions were sterilised through a 0.22 µm filter (VWR International). […] During the primary screening, these reference compounds were used as positive controls at the determined MIC on every plate.
(§2) Gram-negative strains Escherichia coli (ATCC 25922), Enterobacter aerogenes (ATCC 13048) and Pseudomonas aeruginosa (ATCC 27853), Gram-positive strains Staphylococcus aureus (ATCC 25923) and Enterococcus faecalis (ATCC 29212), and fungal strain Candida albicans (ATCC 90028) were obtained from Microbiologics Inc., and used for the antimicrobial screening. Strains were selected according to the guidelines set for clinical laboratories by Clinical and Laboratory Standards Institute [CLSI, formerly National Committee on Clinical Laboratory Standards [22]] and the European Committee on Antimicrobial Susceptibility Testing (EUCAST). Bacterial strains were grown on Mueller Hinton II Agar (MHA) (BBL, BD) and Mueller Hinton II broth (MHB) (BBL, BD), whereas Candida was initiated on Sabouraud Dextrose Agar (SDA) (Difco, BD) plates. Media were prepared into MilliQ water according to manufacturer’s instruction and autoclaved at 121°C for 15 min. Bacteria were plated on MHA plates and incubated at 37°C for 16–18 h. Bacterial suspension for the assays was prepared by subculturing the bacteria into MHB and by incubating at 37°C for 16–20 h at 110 rpm prior to the assay. Candida strain was grown on SDA plates at 27°C for 16–18 h and suspended into sterile 0.9% saline for the assay.
(§3) Antimicrobial screening assays were performed by broth microdilution method following the guidelines of CLSI and EUCAST. Bacterial suspensions were prepared as mentioned earlier and diluted with MHB to obtain a final inoculum of 5×10^5 colony-forming units (cfu)/mL in the assay for all the bacteria (based on OD620 values previously calibrated against plate counts). Candida suspension was prepared into sterile 0.9% saline solution as stated earlier. […] Assays were carried out in clear 96-well microtitre plates and initiated by dispensing an equal volume of microbial suspension and sample solution diluted into the assay medium into the wells. The plates were incubated for 24 h at 37°C (for Candida the incubation was at 35°C for 48 h) with agitation. Absorbance was measured at 620 nm with Victor plate reader (Wallac 1420, Perkin Elmer) at 0, 4 and 24 h with the bacteria, and at 0, 24 and 48 h with Candida. The antimicrobial activity of the samples was calculated from the absorbance values by comparing to the controls, and expressed as a percentage inhibition of growth. All the betulin derivatives were first assayed at the single concentration of 50 µM (two separate experiments, each with three replicates). […] The MIC90 value was expressed as the lowest concentration of compound that inhibited the microbial growth by >90%. The MIC90 results are means of three replicates from two separate experiments.

E. coli ATCC 25922 = test: Broth microdilution assay, E. coli; format: cell-based, Escherichia coli
Protocol: as §1, §2, §3

E. faecalis ATCC 29212 = test: Broth microdilution assay, E. faecalis; format: cell-based, Enterococcus faecalis; details: for inhibition at 50 µM: Enterococcus faecalis, ATCC29212, 24 h
Protocol: as §1, §2, §3

P. aeruginosa ATCC 27853 = test: Broth microdilution assay, P. aeruginosa; format: cell-based, Pseudomonas aeruginosa
Protocol: as §1, §2, §3

S. aureus ATCC 25923 = test: Broth microdilution assay, S. aureus; format: cell-based, Staphylococcus aureus; details: for inhibition at 50 µM: Staphylococcus aureus, ATCC25923, 24 h
Protocol: as §1, §2, §3

C. albicans ATCC 90028 = test: Broth microdilution assay, C. albicans; format: cell-based, Candida albicans
Protocol: as §1, §2, §3

in vitro = format: cell-based, human; details: human
Protocol: (§4) Huh-7 cells (derived from human hepatocellular carcinoma) were obtained as a gift from Prof. Ralf Bartenschlager (University of Heidelberg, Germany) and used for assessing the cytotoxicity against mammalian cells. HL cells (a heteroploid cell line used for propagating respiratory viruses) were used as a host cell line in the host-pathogen co-culture assay. […] Both cell lines were cultured at 37°C, 5% CO2 and 95% humidity.
(§5) The effect of the betulin derivatives on metabolic activity of Huh-7 cells was evaluated by measuring the intracellular ATP content of the cells after 24 h exposure to the compounds. In brief, cells were seeded at 20000 cells/well on white-walled microplates (PerkinElmer) and incubated at 37°C, 5% CO2 and 95% humidity. After culturing the cells overnight, the medium was replaced with the assay media (5% FBS) containing the sample and the cells were incubated for 24 h. Polymyxin B sulphate (15000 IU/mL) was used as a positive control. Following the incubation period, Promega’s CellTiter-Glo Cell Viability Assay was used to determine the intracellular ATP levels according to the manufacturer’s instructions. Cells were washed with 100 µL 6.7 mM PBS, pH 7.4 and 50 µL of fresh assay media and 50 µL of the CellTiter-Glo reagent were added into the wells. After 2 min shaking, followed by 10 min incubation at RT, luminometric signal was measured using Varioskan Flash plate reader (Thermo Fisher Scientific).

Huh-7 cells = test: in vitro; format: cell-based, human; details: 50 µM, 24 h exposure, ATP content, 5% FBS
Protocol: as §4, §5

[1] = 50 µM, 24 h, inhibition of growth, mean ± SD
[2] = Escherichia coli, ATCC25922, 24 h; read-out: Inhibitory effect (%) E. coli ATCC 25922
[3] = 50 µM, 24 h, inhibition of growth, mean ± SD, read-out: Inhibitory effect (%) E. faecalis ATCC 29212
[4] = Pseudomonas aeruginosa, ATCC27853, 24 h; read-out: Inhibitory effect (%) P. aeruginosa ATCC 27853
[5] = 50 µM, 24 h, inhibition of growth, mean ± SD, read-out: Inhibitory effect (%) S. aureus ATCC 25923
[6] = Candida albicans, ATCC90028, 48 h; read-out: Inhibitory effect (%) C. albicans ATCC 90028
[7] = 50 µM, 24 h exposure, ATP content, 5% FBS, read-out: Cytotoxicity (%) Huh-7 cells
[8] = 50 µM, 48 h at 35°C, inhibition of growth, mean ± SD

SMILES | inhibition at 50 µM (E. aerogenes ATCC 13048; [1]) [%] | inhibition at 50 µM (E. coli ATCC 25922; [2]) [%] | Inhibitory effect (%) E. faecalis ATCC 29212 (E. faecalis ATCC 29212; [1]) | inhibition at 50 µM (E. faecalis ATCC 29212; [3]) [%] | inhibition at 50 µM (P. aeruginosa ATCC 27853; [4]) [%] | inhibition at 50 µM (S. aureus ATCC 25923; [5]) [%] | inhibition at 50 µM (C. albicans ATCC 90028; [6]) [%] | cytotoxicity at 24 h, 50 µM (in vitro; Cytotoxicity (%) Huh-7 cells) [%] | Inhibitory effect (%) E. aerogenes ATCC 13048 (E. aerogenes ATCC 13048; [1]) [%] | Inhibitory effect (%) E. coli ATCC 25922 (E. coli ATCC 25922; [1]) [%] | Inhibitory effect (%) P. aeruginosa ATCC 27853 (P. aeruginosa ATCC 27853; [1]) [%] | Inhibitory effect (%) S. aureus ATCC 25923 (S. aureus ATCC 25923; [1]) [%] | Inhibitory effect (%) C. albicans ATCC 90028 (C. albicans ATCC 90028; [8]) [%] | Cytotoxicity (%) Huh-7 cells (Huh-7 cells) [%] | also measured
C=C(C)[C@@H]1CC[C@]2(COC(=O)COc3cc(C(C)C)ccc3C)CC[C@]3(C)[C@H](CC[C@@H]4[C@@]5(C)CC[C@H](O)C(C)(C)[C@@H]5CC[C@]43C)[C@@H]12 [Compound 4, betulinyl 28-carboxymethoxycarvacrolate] | 9.9 ± 3.3 | -1.2 | 72% and 72.3±4.0% | > 70 | 3 ± 3 | -17.2 | 31.4 ± 9.1 | -4.6 |  |  |  |  |  |  | 
CC(C)[C@@H]1CC[C@]2(C(=O)O)CC[C@]3(C)[C@H](CC[C@@H]4[C@@]5(C)CCC(=O)C(C)(C)[C@@H]5CC[C@]43C)[C@@H]12 [Compound 24, dihydrobetulonic acid] | 16.8 ± 5.4 | 6.2 ± 4.5 | 56.6±2.0% | 57 | 4.9 ± 0.5 | 15.1 ± 3.7 | 54.9 ± 8.3 | 13 ± 10.3 |  |  |  |  |  |  | 
C=C(C)[C@@H]1CC[C@]2(C(=O)Oc3ccc(C=O)cc3OC)CC[C@]3(C)[C@H](CC[C@@H]4[C@@]5(C)CCC(=O)C(C)(C)C5CC[C@]43C)[C@@H]12 (stereo partly shown) [Compound 26, vanillinyl betulonate] |  |  | 58.7±0.1% |  |  |  |  | -10.1 ± 2.2 |  |  |  |  |  |  | inhibition at 50 µM (E. aerogenes ATCC 13048): 7.5 ± 0.6%; inhibition at 50 µM (E. coli ATCC 25922; Escherichia coli, ATCC25922, 24 h, read-out: Inhibitory effect (%) E. coli ATCC 25922): 4.1 ± 0.4%; inhibition at 50 µM (E. faecalis ATCC 29212; read-out: Inhibitory effect (%) E. faecalis ATCC 29212, 50 µM, 24 h, inhibition of growth, mean ± SD): 59%; inhibition at 50 µM (P. aeruginosa ATCC 27853; Pseudomonas aeruginosa, ATCC27853, 24 h, read-out: Inhibitory effect (%) P. aeruginosa ATCC 27853): 6.6 ± 1%; inhibition at 50 µM (S. aureus ATCC 25923; read-out: Inhibitory effect (%) S. aureus ATCC 25923, 50 µM, 24 h, inhibition of growth, mean ± SD): 7.3 ± 5.8%; inhibition at 50 µM (C. albicans ATCC 90028; Candida albicans, ATCC90028, 48 h, read-out: Inhibitory effect (%) C. albicans ATCC 90028): -65.9 ± 15%
CC(=O)OCC12CCC3(C(C)C)C1=C1C(CC4C5(C)CCC(OC(C)=O)C(C)(C)C5CCC4(C)C1(C)CC2)n1c(=O)n(-c2ccc4c(c2)OCO4)c(=O)n13 (stereo not shown) [Compound 35] | 14.2 ± 1.6 | 3.4 ± 3.1 | 70.0±0.9% | > 70 | 5.5 ± 1 | 5.9 ± 1.2 | 4.4 ± 12.9 |  |  |  |  |  |  |  | cytotoxicity at 24 h, 50 µM (in vitro; [7]): -0.1%
CC(=O)OCC12CCC3(C(C)C)C1=C1C(CC4C5(C)CCC(OC(C)=O)C(C)(C)C5CCC4(C)C1(C)CC2)n1c(=O)n(-c2cccc([N+](=O)[O-])c2)c(=O)n13 (stereo not shown) [Compound 38] | 19.3 ± 3 | 8.8 ± 2.6 | 74% and 73.9±1.4% | > 70 | 7.6 ± 1.4 | 6.7 ± 1.5 | -13.8 |  |  |  |  |  |  |  | cytotoxicity at 24 h, 50 µM (in vitro; [7]): 8.3 ± 3.9%
CC(C)C12CCC3(COC(=O)c4ccccc4)CCC4(C)C(=C31)C(CC1C3(C)CCC(OC(=O)c5ccccc5)C(C)(C)C3CCC14C)n1c(=O)n(C)c(=O)n12 (stereo not shown) [Compound 49] |  |  | 64.6±0.8% |  |  |  |  |  | 14.2±1.5 | 0.0±6.0 | 5.3±1.9 | 15.1±1.0 | -48.0±24.5 | -10.6±4.1 | 
CC(C)C12CCC3(COC(=O)c4ccccc4)CCC4(C)C(=C31)C(CC1C3(C)CCC(OC(=O)c5ccccc5)C(C)(C)C3CCC14C)n1c(=O)n(-c3ccccc3)c(=O)n12 (stereo not shown) [Compound 50] |  |  | 38.8±5.8% |  |  |  |  |  | 9.6±4.2 | -2.8±5.2 | 3.2±0.3 | 10.1±1.0 | -35.2±31.4 | -6.2±3.7 | 
CC(C)C12CCC3(COC(=O)C4CCCCC4)CCC4(C)C(=C31)C(CC1C3(C)CCC(OC(=O)C5CCCCC5)C(C)(C)C3CCC14C)n1c(=O)n(C(C)(C)C)c(=O)n12 (stereo not shown) [Compound 51] |  |  | 62.3±0.3% |  |  |  |  |  | 10.8±2.5 | -3.2±1.0 | 5.9±0.3 | 7.5±3.8 | -96.4±22.3 | -10.0±2.6 | 
